These results are taken from PMC12624743 (ACS Infectious Diseases, 2025).

Test [1] concerns N. gonorrhoeae FA1090E (GyrA^WT/ParC^WT, efflux mutant). Briefly: MIC by agar dilution, WT/WT efflux-mutant parental strain. Particulars: Neisseria gonorrhoeae, 48 h. Format: cell-based. As to the method:
Mutations in these efflux genes can result in increased efflux to multiple antibiotics. […] Parental and isogenic mutant strains generated that carried the efflux mutations mtrR-79 and norM ΔT T6 were designated as FA1090E (E for efflux positive). Only the additional GyrA and ParC genotypes are described in Table and in the text. The mutant that additionally expressed ParC^D86N was named FA1090E-2.
Minimum inhibitory concentration (MIC) of test compounds was determined by an agar dilution method, the reference testing method for N. gonorrhoeae according to the standards of the Clinical and Laboratory Standards Institute and the CDC.
On the technique in general: In agar dilution the substance is mixed into plates at graded concentrations.

Test [2] concerns the target T1, N. gonorrhoeae gyrase GyrA^S91F/D95G (Neisseria gonorrhoeae, UniProt P48371, D95G/S91F).
T1 construct: His; made in house
Briefly: DNA cleavage assay, GyrA^S91F/D95G gyrase. In kind it is biochemical. As for the experimental part: Some experiments replaced MgCl2 with an equivalent concentration of CaCl2 (10 mM), or 1.5 mM ATP was added to assay mixtures.
Reactions were incubated at 37 °C for 30 min with WT and mutant (GyrA^D90N, GyrA^A92T, GyrA^S91F, GyrA^D95G, or GyrA^S91F/D95G) N. gonorrhoeae gyrase, 10 min with WT N. gonorrhoeae topoisomerase IV, and 20 min with mutant (ParC^D86N, ParC^S88P, ParC^S87N, or ParC^E91G) N. gonorrhoeae topoisomerase IV. Enzyme-DNA cleavage complexes were trapped by adding 2 μL of 5% SDS followed by 2 μL of 250 mM EDTA (pH 8.0). Proteinase K was added (2 μL of a 0.8 mg/mL solution), and reaction mixtures were incubated at 45 °C for 30 min to digest the enzyme. Samples were mixed with 2 μL of loading buffer and heated at 45 °C for 2 min prior to electrophoresis in 1% agarose gels in 40 mM Tris-acetate (pH 8.3), and 2 mM EDTA containing 0.5 μg/mL ethidium bromide. DNA bands were visualized by midrange ultraviolet light and quantified using an Alpha Innotech digital imaging system (Protein Simple). Single-stranded DNA cleavage was monitored by the conversion of negatively supercoiled to nicked plasmid molecules.

Test [3] has as its target T2, N. gonorrhoeae topoisomerase IV ParC^S88P (Neisseria gonorrhoeae, UniProt P48374, S88P).
T2 sequence (P48374 1-768 S88P): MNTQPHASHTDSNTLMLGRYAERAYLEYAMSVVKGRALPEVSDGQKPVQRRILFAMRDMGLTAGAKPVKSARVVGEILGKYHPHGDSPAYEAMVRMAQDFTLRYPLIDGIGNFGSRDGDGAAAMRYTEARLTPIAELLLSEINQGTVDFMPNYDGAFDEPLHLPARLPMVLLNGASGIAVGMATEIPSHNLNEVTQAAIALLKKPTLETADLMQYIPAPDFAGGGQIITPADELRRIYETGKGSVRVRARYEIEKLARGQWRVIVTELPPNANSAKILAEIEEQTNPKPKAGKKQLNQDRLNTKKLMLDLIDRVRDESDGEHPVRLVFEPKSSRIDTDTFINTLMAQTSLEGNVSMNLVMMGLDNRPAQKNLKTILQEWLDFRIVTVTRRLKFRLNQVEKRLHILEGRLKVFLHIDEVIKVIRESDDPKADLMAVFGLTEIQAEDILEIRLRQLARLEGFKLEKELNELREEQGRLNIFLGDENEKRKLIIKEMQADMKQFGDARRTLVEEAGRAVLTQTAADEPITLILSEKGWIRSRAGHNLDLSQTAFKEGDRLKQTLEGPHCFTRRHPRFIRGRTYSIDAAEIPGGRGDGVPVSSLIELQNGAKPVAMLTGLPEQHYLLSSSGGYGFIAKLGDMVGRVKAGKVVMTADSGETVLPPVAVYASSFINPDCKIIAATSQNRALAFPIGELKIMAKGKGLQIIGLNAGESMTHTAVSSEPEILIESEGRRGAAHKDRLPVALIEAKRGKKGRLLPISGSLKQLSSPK
Briefly: Topoisomerase IV-catalyzed DNA decatenation assay, ParC^S88P. On the set-up: His; made in house. Format: biochemical. As for the experimental part:
All proteins were His-tagged. N. gonorrhoeae WT gyrase (GyrA, GyrB) and topoisomerase IV (ParC, ParE) subunits as well as mutant GyrA^D90N, GyrA^A92T, GyrA^S91F, and GyrA^S91F/D95G gyrase and ParC^D86N and ParC^S88P topoisomerase IV were prepared as described previously. , N. gonorrhoeae mutant GyrA^D95G gyrase and mutant ParC^S87N and ParC^E91G topoisomerase IV were generated using a QuickChange II XL site-directed mutagenesis kit (Agilent Technologies) with custom primers for the desired mutations. Mutant N. gonorrhoeae GyrA and ParC subunits were expressed and purified as described by Ashley et al. with the following modifications to optimize protein expression and lysis: (1) GyrA^D95G was expressed for 2.5 h and ParC^S87N and ParC^E91G were expressed for 3 h before harvesting, and (2) cells were lysed by sonication using a digital sonifier (Branson). The identities of all constructs were confirmed by DNA sequencing, and all enzymes were stored at −80 °C. In all assays, N. gonorrhoeae gyrase or topoisomerase IV was used as a 1:1 GyrA:GyrB or ParC:ParE mixture, respectively, and the stated enzyme concentration reflects that of the holoenzyme (A2B2). […]

In brackets after ≈: the same amount, converted by molar mass.

T1 sequence (P48371 whole entry S91F/D95G): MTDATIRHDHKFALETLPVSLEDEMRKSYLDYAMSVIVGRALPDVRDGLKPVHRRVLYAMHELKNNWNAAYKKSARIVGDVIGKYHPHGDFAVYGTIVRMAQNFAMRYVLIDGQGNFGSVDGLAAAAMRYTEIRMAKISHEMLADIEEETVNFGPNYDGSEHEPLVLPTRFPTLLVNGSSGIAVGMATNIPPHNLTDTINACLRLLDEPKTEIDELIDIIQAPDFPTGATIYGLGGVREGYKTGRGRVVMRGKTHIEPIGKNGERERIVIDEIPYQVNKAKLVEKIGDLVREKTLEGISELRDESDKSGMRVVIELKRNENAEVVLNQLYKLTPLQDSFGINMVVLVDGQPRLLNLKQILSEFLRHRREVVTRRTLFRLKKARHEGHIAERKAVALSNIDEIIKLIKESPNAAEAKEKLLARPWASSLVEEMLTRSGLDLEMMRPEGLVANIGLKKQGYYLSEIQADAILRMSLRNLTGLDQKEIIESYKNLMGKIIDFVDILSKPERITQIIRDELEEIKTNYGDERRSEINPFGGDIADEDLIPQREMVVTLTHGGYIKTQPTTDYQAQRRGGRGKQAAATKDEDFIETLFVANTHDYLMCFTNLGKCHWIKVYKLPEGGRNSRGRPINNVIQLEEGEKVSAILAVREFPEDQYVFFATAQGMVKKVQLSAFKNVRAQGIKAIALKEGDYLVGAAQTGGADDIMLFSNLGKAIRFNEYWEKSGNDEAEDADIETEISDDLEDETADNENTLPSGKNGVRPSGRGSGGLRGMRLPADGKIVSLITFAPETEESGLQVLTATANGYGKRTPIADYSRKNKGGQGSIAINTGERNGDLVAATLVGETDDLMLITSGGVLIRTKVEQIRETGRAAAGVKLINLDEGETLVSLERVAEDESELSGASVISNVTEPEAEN
T1 sequence (P22118 whole entry partner): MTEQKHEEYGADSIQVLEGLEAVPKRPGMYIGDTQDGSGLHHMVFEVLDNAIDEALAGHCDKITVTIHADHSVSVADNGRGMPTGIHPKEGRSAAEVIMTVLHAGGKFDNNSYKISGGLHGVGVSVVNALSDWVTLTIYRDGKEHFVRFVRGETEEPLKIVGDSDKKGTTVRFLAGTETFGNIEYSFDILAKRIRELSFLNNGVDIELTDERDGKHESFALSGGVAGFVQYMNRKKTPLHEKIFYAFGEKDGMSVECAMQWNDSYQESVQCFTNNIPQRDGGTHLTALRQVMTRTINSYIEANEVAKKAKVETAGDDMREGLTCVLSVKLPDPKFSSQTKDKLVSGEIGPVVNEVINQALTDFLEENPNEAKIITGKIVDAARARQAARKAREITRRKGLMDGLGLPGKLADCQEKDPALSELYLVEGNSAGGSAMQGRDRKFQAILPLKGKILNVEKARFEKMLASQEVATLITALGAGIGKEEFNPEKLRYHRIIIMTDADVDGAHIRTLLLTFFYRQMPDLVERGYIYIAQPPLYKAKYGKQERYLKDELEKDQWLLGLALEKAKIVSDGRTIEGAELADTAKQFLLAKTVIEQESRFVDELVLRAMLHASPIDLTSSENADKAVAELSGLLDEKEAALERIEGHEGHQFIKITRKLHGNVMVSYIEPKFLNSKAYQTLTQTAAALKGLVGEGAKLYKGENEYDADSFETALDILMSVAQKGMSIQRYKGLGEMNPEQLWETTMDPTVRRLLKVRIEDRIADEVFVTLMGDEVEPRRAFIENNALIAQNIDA

Usually MIC stands for the lowest concentration found to suppress growth. As usually defined, the IC50 is the midpoint of a concentration-inhibition curve. Consider `O=c1ccc2ncc(=O)n3c2n1C[C@H]3CN1CCC(NCc2cc3c(cn2)OCCC3)CC1` [gepotidacin], for which the MIC in test [1] is 0.5 µg/mL (≈ 1.11 µM). For the same molecule, the “Adj-Max Cleavage, single-stranded DNA breaks” value in test [2] was found to be 3.9%. In test [2] (GyrA S91F/D95G gyrase, read-out: CC50, single-stranded DNA cleavage), the EC50 turned out to be 800 nM. The “fold decrease of adjusted maximal DNA cleavage vs WT” value in test [2] (GyrA S91F/D95G vs WT) is given as roughly 4.4 fold. This molecule came in with an IC50 in test [3] of 1200 nM. Moreover, the “effect of mutation on gepotidacin susceptibility in decatenation assays” value in test [3] (ParC S88P vs WT) is on record as “no effect”.
